Patent US5292733A, “Cephalosporin compounds” (Lucky Limited, priority 1991, dated 1994)
Values after ≈ are worked out from the molar mass of the structure shown.

Legend:
Assay in all cases: Antibacterial activity MIC, two-fold agar dilution
Format in all cases: cell-based
[1] = tested on: Proteus mirabilis ATCC 25933; conditions: ATCC25933; Proteus mirabilis ATCC 25933; Muller-Hinton agar, 37° C., 20 hours; read-out: Antibacterial Activity MIC
Description: (§1) These MIC values were taken by employing a two-fold dilution method: that is, two-fold serial dilutions of each of the test compounds were made and dispersed in a Muller-Hinton agar medium; 2 μl of the standard test strain which had the 10^7 CFU(Colony Forming Unit) per ml was inoculated on the medium; and these were incubated at 37° C. for 20 hours. The results of the MIC tests are shown Table 1.

[2] = tested on: Providencia rettgeri ATCC 9250; conditions: ATCC9250, Muller-Hinton agar, 37° C., 20 hours
Description: as §1

[3] = tested on: Klebsiella pneumoniae ATCC 10031; conditions: ATCC10031; Klebsiella pneumoniae ATCC 10031; Muller-Hinton agar, 37° C., 20 hours; read-out: Antibacterial Activity MIC
Description: as §1

[4] = tested on: Enterobacter aerogenes ATCC 29751; conditions: Klebsiella aerogenes, ATCC29751; Enterobacter aerogenes ATCC 29751; Muller-Hinton agar, 37° C., 20 hours; read-out: Antibacterial Activity MIC
Description: as §1

[5] = tested on: Bacillus megaterium ATCC 9885; conditions: Priestia megaterium, ATCC9885; Bacillus megaterium ATCC 9885; Muller-Hinton agar, 37° C., 20 hours; read-out: Antibacterial Activity MIC
Description: as §1

[6] = tested on: Pseudomonas aeruginosa ATCC 25619; conditions: ATCC25619; Pseudomonas aeruginosa ATCC 25619; Muller-Hinton agar, 37° C., 20 hours; read-out: Antibacterial Activity MIC
Description: as §1

[7] = tested on: Pseudomonas aeruginosa ATCC 27853; conditions: ATCC27853; Pseudomonas aeruginosa ATCC 27853; Muller-Hinton agar, 37° C., 20 hours; read-out: Antibacterial Activity MIC
Description: as §1

[8] = tested on: Bacillus cereus ATCC 11778; conditions: ATCC11778; Bacillus cereus ATCC 11778; Muller-Hinton agar, 37° C., 20 hours; read-out: Antibacterial Activity MIC
Description: as §1

[9] = tested on: Staphylococcus aureus ATCC 10537; conditions: ATCC10537; Staphylococcus aureus ATCC 10537; Muller-Hinton agar, 37° C., 20 hours; read-out: Antibacterial Activity MIC
Description: as §1

[10] = tested on: Shigella sonnei ATCC 11060; conditions: ATCC11060, Muller-Hinton agar, 37° C., 20 hours
Description: as §1

[11] = tested on: Acinetobacter calcoaceticus ATCC 15473; conditions: ATCC15473; Acinetobacter calcoaceticus ATCC 15473; Muller-Hinton agar, 37° C., 20 hours; read-out: Antibacterial Activity MIC
Description: as §1

[12] = tested on: Staphylococcus aureus ATCC 6538p; conditions: ATCC6538P; Staphylococcus aureus ATCC 6538p; Muller-Hinton agar, 37° C., 20 hours; read-out: Antibacterial Activity MIC
Description: as §1

[13] = tested on: Shigella flexneri ATCC 11836; conditions: ATCC11836, Muller-Hinton agar, 37° C., 20 hours
Description: as §1

[14] = tested on: Streptococcus faecalis ATCC 29212; conditions: Enterococcus faecalis, ATCC29212; Streptococcus faecalis ATCC 29212; Muller-Hinton agar, 37° C., 20 hours; read-out: Antibacterial Activity MIC
Description: as §1

[15] = tested on: Micrococcus luteus ATCC 9341; conditions: ATCC9341; Micrococcus luteus ATCC 9341; Muller-Hinton agar, 37° C., 20 hours; read-out: Antibacterial Activity MIC
Description: as §1

[16] = tested on: Morganella morganii ATCC 8076h; conditions: ATCC8076H, Muller-Hinton agar, 37° C., 20 hours
Description: as §1

[17] = tested on: Serratia marcescens ATCC 27117; conditions: ATCC27117; Serratia marcescens ATCC 27117; Muller-Hinton agar, 37° C., 20 hours; read-out: Antibacterial Activity MIC
Description: as §1

[18] = tested on: Citrobacter freundii ATCC 8090; conditions: ATCC8090; Citrobacter freundii ATCC 8090; Muller-Hinton agar, 37° C., 20 hours; read-out: Antibacterial Activity MIC
Description: as §1

[19] = tested on: Enterobacter cloacae ATCC 27508; conditions: ATCC27508; Enterobacter cloacae ATCC 27508; Muller-Hinton agar, 37° C., 20 hours; read-out: Antibacterial Activity MIC
Description: as §1

[20] = tested on: Proteus vulgaris ATCC 6059; conditions: ATCC6059; Proteus vulgaris ATCC 6059; Muller-Hinton agar, 37° C., 20 hours; read-out: Antibacterial Activity MIC
Description: as §1

[21] = tested on: Staphylococcus epidermidis ATCC 12228; conditions: ATCC12228; Staphylococcus epidermidis ATCC 12228; Muller-Hinton agar, 37° C., 20 hours; read-out: Antibacterial Activity MIC
Description: as §1

[22] = tested on: Escherichia coli ATCC 10536; conditions: ATCC10536, Muller-Hinton agar, 37° C., 20 hours
Description: as §1

[23] = tested on: Pseudomonas aeruginosa ATCC 10145; conditions: ATCC10145; Pseudomonas aeruginosa ATCC 10145; Muller-Hinton agar, 37° C., 20 hours; read-out: Antibacterial Activity MIC
Description: as §1

[24] = tested on: Salmonella typhimurium ATCC 14028; conditions: Salmonella enterica; Salmonella typhimurium ATCC 14028; Muller-Hinton agar, 37° C., 20 hours; read-out: Antibacterial Activity MIC
Description: as §1

[25] = tested on: Escherichia coli ATCC 25922; conditions: ATCC25922, Muller-Hinton agar, 37° C., 20 hours
Description: as §1

SMILES	MIC [1] [µg/mL]	MIC [2] [µg/mL]	MIC [3] [µg/mL]	MIC [4] [µg/mL]	MIC [5] [µg/mL]	MIC [6] [µg/mL]	MIC [7] [µg/mL]	MIC [8] [µg/mL]	MIC [9] [µg/mL]	MIC [10] [µg/mL]	MIC [11] [µg/mL]	MIC [12] [µg/mL]	MIC [13] [µg/mL]	MIC [14] [µg/mL]	MIC [15] [µg/mL]	MIC [16] [µg/mL]	MIC [17] [µg/mL]	MIC [18] [µg/mL]	MIC [19] [µg/mL]	MIC [20] [µg/mL]	other results
CCO/N=C(\C(=O)N[C@@H]1C(=O)N2C(C(=O)[O-])=C(CSc3cc(N)[n+](CC)c(N)n3)CS[C@H]12)c1nsc(N)n1 [Compound I-11, (6R,7R)-7-[(Z)-2-(5-amino-1,2,4-thiadiazol-3-yl)-2-(ethoxyimino)acetamido]-3-(2,6-diamino-1-ethylpyrimidinium-4-yl)thiomethyl-3-cephem-4-carboxylate]	0.5 (≈ 0.861 µM)	≤ 0.008	≤ 0.008	0.13 (≈ 0.224 µM)	0.13 (≈ 0.224 µM)	0.5 (≈ 0.861 µM)	1 (≈ 1.72 µM)	128 (≈ 220 µM)	0.5 (≈ 0.861 µM)	0.25 (≈ 0.431 µM)	4 (≈ 6.89 µM)	0.5 (≈ 0.861 µM)	0.031 (≈ 0.0534 µM)	8 (≈ 13.8 µM)	0.016 (≈ 0.0276 µM)	0.016 (≈ 0.0276 µM)	0.13 (≈ 0.224 µM)	0.063 (≈ 0.108 µM)	≤ 0.008	0.5 (≈ 0.861 µM)	MIC [21]: 0.25 µg/mL (≈ 0.431 µM); MIC [22]: 0.13 µg/mL (≈ 0.224 µM); MIC [23]: 2 µg/mL (≈ 3.44 µM); MIC [24]: 0.063 µg/mL (≈ 0.108 µM); MIC [25]: 0.25 µg/mL (≈ 0.431 µM)
C[n+]1c(N)cc(SCC2=C(C(=O)[O-])N3C(=O)[C@@H](NC(=O)/C(=N\OC(C)(C)C(=O)O)c4csc(N)n4)[C@H]3SC2)nc1N [Compound I-12, (6R,7R)-7-[(Z)-2-(2-aminothiazol-4-yl)-2-(carboxyprop-2-oxyimino)acetamido]-3-(2,6-diamino-1-methylpyrimidinium-4-yl)thiomethyl-3-cephem-4-carboxylate]	0.13 (≈ 0.208 µM)	≤ 0.008	0.063 (≈ 0.101 µM)	2 (≈ 3.21 µM)	0.25 (≈ 0.401 µM)	1 (≈ 1.6 µM)	1 (≈ 1.6 µM)	128 (≈ 205 µM)	4 (≈ 6.41 µM)	0.25 (≈ 0.401 µM)	8 (≈ 12.8 µM)	8 (≈ 12.8 µM)	0.063 (≈ 0.101 µM)	> 128	0.5 (≈ 0.802 µM)	≤ 0.008	0.5 (≈ 0.802 µM)	0.13 (≈ 0.208 µM)	0.031 (≈ 0.0497 µM)	0.25 (≈ 0.401 µM)	MIC [21]: 4 µg/mL (≈ 6.41 µM); MIC [22]: 0.25 µg/mL (≈ 0.401 µM); MIC [23]: 2 µg/mL (≈ 3.21 µM); MIC [24]: 0.25 µg/mL (≈ 0.401 µM); MIC [25]: 0.25 µg/mL (≈ 0.401 µM)
CC[n+]1c(N)cc(SCC2=C(C(=O)[O-])N3C(=O)[C@@H](NC(=O)/C(=N\OC(C)(C)C(=O)O)c4csc(N)n4)[C@H]3SC2)nc1N [Compound I-13, (6R,7R)-7-[(Z)-2-(2-aminothiazol-4-yl)-2-(carboxyprop-2-oxyimino)acetamido]-3-(2,6-diamino-1-ethylpyrimidinium-4-yl)thiomethyl-3-cephem-4-carboxylate]	0.13 (≈ 0.204 µM)	≤ 0.008	0.063 (≈ 0.0988 µM)	2 (≈ 3.14 µM)	0.25 (≈ 0.392 µM)	1 (≈ 1.57 µM)	1 (≈ 1.57 µM)	128 (≈ 201 µM)	4 (≈ 6.27 µM)	0.25 (≈ 0.392 µM)	8 (≈ 12.5 µM)	8 (≈ 12.5 µM)	0.063 (≈ 0.0988 µM)	> 128	0.5 (≈ 0.784 µM)	≤ 0.008	0.5 (≈ 0.784 µM)	0.13 (≈ 0.204 µM)	0.031 (≈ 0.0486 µM)	0.25 (≈ 0.392 µM)	MIC [21]: 2 µg/mL (≈ 3.14 µM); MIC [22]: 0.13 µg/mL (≈ 0.204 µM); MIC [23]: 2 µg/mL (≈ 3.14 µM); MIC [24]: 0.25 µg/mL (≈ 0.392 µM); MIC [25]: 0.13 µg/mL (≈ 0.204 µM)
C#CCO/N=C(\C(=O)N[C@@H]1C(=O)N2C(C(=O)[O-])=C(CSc3cc(N)[n+](C)c(N)n3)CS[C@H]12)c1csc(N)n1 [Compound I-14, (6R,7R)-7-[(Z)-2-(2-aminothiazol-4-yl)-2-(2-propyn-1-oxyimino)acetamido]-3-(2,6-diamino-1-methylpyrimidinium-4-yl)thiomethyl-3-cephem-4-carboxylate]	1 (≈ 1.74 µM)	≤ 0.008	0.016 (≈ 0.0278 µM)	0.5 (≈ 0.869 µM)	0.25 (≈ 0.434 µM)	1 (≈ 1.74 µM)	4 (≈ 6.95 µM)	64 (≈ 111 µM)	0.5 (≈ 0.869 µM)	0.5 (≈ 0.869 µM)	8 (≈ 13.9 µM)	0.5 (≈ 0.869 µM)	0.063 (≈ 0.109 µM)	16 (≈ 27.8 µM)	0.031 (≈ 0.0539 µM)	0.016 (≈ 0.0278 µM)	0.5 (≈ 0.869 µM)	0.25 (≈ 0.434 µM)	0.016 (≈ 0.0278 µM)	1 (≈ 1.74 µM)	MIC [21]: 0.25 µg/mL (≈ 0.434 µM); MIC [22]: 0.5 µg/mL (≈ 0.869 µM); MIC [23]: 8 µg/mL (≈ 13.9 µM); MIC [24]: 0.25 µg/mL (≈ 0.434 µM); MIC [25]: 0.25 µg/mL (≈ 0.434 µM)
C#CCO/N=C(\C(=O)N[C@@H]1C(=O)N2C(C(=O)[O-])=C(CSc3cc(N)[n+](CC)c(N)n3)CS[C@H]12)c1csc(N)n1 [Compound I-15, (6R,7R)-7-[(Z)-2-(2-aminothiazol-4-yl)-2-(2-propyn-1-oxyimino)acetamido]-3-(2,6-diamino-1-ethylpyrimidinium-4-yl)thiomethyl-3-cephem-4-carboxylate]	0.5 (≈ 0.848 µM)	≤ 0.008	0.016 (≈ 0.0271 µM)	1 (≈ 1.7 µM)	0.25 (≈ 0.424 µM)	1 (≈ 1.7 µM)	4 (≈ 6.78 µM)	32 (≈ 54.3 µM)	0.5 (≈ 0.848 µM)	0.5 (≈ 0.848 µM)	8 (≈ 13.6 µM)	0.5 (≈ 0.848 µM)	0.13 (≈ 0.22 µM)	16 (≈ 27.1 µM)	0.031 (≈ 0.0526 µM)	0.016 (≈ 0.0271 µM)	0.5 (≈ 0.848 µM)	0.25 (≈ 0.424 µM)	0.031 (≈ 0.0526 µM)	1 (≈ 1.7 µM)	MIC [21]: 0.25 µg/mL (≈ 0.424 µM); MIC [22]: 0.25 µg/mL (≈ 0.424 µM); MIC [23]: 8 µg/mL (≈ 13.6 µM); MIC [24]: 0.5 µg/mL (≈ 0.848 µM); MIC [25]: 0.5 µg/mL (≈ 0.848 µM)
C[n+]1c(N)cc(SCC2=C(C(=O)[O-])N3C(=O)[C@@H](NC(=O)/C(=N\OCC(=O)O)c4csc(N)n4)[C@H]3SC2)nc1N [Compound I-17, (6R,7R)-7-[(Z)-2-(2-aminothiazol-4-yl)-2-(carboxymethoxyimino)acetamido]-3-(2,6-diamino-1-methylpyrimidinium-4-yl)thiomethyl-3-cephem-4-carboxylate]	0.031 (≈ 0.052 µM)	≤ 0.008	0.031 (≈ 0.052 µM)	1 (≈ 1.68 µM)	0.5 (≈ 0.839 µM)	1 (≈ 1.68 µM)	2 (≈ 3.36 µM)	> 128	4 (≈ 6.72 µM)	0.031 (≈ 0.052 µM)	16 (≈ 26.9 µM)	8 (≈ 13.4 µM)	0.016 (≈ 0.0269 µM)	> 128	1 (≈ 1.68 µM)	≤ 0.008	0.063 (≈ 0.106 µM)	0.031 (≈ 0.052 µM)	0.016 (≈ 0.0269 µM)	0.063 (≈ 0.106 µM)	MIC [21]: 2 µg/mL (≈ 3.36 µM); MIC [22]: 0.031 µg/mL (≈ 0.052 µM); MIC [23]: 4 µg/mL (≈ 6.72 µM); MIC [24]: 0.063 µg/mL (≈ 0.106 µM); MIC [25]: 0.016 µg/mL (≈ 0.0269 µM)
